Several values for one entry are separate records, joined by “and”; a condition that tells them apart may be missing. Equal entries are not always repeated.
What was measured:
Experiment in all cases: biochemical
Set-up in all cases: endogenous in cells; host or cells: K562 cell extract; species or system K562 (extract); replicate k of n = 2 (each experiment ID is one independent experiment; two experiment IDs per compound)
Details in all cases: read-out: KDapp
[1] = biological target: FER (Homo sapiens, UniProt P16591)
Chain of FER (P16591 whole entry): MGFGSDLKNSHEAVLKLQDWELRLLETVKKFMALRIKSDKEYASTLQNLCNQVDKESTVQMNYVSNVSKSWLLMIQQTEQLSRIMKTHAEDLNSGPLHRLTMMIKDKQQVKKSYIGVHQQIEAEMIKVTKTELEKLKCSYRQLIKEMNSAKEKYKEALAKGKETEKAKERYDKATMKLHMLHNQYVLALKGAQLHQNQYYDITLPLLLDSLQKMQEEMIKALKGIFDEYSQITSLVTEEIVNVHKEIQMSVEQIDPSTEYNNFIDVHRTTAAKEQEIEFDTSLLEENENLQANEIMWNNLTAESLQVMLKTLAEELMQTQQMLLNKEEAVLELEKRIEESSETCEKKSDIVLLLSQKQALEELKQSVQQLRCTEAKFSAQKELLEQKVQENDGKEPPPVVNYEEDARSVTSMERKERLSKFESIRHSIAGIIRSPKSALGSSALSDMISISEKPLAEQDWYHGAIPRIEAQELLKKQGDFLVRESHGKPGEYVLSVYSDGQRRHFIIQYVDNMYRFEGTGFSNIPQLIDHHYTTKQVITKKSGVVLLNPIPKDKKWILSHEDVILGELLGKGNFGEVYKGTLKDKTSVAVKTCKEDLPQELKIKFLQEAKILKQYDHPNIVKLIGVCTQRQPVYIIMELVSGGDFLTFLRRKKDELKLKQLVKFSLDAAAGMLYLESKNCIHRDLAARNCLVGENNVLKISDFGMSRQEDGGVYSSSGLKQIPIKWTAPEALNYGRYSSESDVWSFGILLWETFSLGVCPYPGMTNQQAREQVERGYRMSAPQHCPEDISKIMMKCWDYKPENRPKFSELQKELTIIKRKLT

[2] = biological target: T1, GAK (Homo sapiens, UniProt O14976)
T1 sequence (O14976 1-1311): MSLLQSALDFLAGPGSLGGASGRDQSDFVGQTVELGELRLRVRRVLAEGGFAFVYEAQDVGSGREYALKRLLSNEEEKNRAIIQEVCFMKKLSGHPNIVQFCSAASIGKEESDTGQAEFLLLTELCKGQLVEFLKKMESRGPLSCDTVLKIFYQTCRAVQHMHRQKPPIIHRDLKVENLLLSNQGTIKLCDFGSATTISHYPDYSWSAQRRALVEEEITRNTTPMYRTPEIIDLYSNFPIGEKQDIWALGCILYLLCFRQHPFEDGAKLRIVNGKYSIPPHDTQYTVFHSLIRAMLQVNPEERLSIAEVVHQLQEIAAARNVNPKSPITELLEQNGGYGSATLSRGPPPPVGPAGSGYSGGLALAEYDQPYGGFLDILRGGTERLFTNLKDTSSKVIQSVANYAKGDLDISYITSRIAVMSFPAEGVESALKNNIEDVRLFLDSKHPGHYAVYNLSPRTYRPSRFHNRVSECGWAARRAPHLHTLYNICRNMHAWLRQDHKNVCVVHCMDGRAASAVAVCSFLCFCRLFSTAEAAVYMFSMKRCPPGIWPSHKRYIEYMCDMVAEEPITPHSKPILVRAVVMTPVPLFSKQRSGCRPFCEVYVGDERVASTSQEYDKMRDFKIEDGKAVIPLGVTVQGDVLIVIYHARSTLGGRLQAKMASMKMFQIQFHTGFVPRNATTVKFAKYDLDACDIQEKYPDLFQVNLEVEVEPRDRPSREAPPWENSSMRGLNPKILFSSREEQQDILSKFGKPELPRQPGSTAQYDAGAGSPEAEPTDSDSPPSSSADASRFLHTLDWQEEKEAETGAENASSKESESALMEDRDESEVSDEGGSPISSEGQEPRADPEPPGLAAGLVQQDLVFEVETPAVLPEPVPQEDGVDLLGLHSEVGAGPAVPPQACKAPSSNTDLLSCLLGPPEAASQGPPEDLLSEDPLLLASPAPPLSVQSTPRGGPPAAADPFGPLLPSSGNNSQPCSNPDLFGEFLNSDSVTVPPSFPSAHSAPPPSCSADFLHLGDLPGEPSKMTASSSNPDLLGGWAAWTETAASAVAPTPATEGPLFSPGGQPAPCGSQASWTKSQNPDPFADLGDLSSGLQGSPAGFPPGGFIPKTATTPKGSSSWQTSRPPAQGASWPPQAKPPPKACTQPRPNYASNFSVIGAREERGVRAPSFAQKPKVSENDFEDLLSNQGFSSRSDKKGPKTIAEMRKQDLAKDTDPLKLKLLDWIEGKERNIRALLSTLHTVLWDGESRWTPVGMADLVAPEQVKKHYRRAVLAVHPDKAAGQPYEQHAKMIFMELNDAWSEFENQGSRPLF

[3] = biological target: KIAA0999 (Homo sapiens, UniProt Q9Y2K2)
Chain of KIAA0999 (Q9Y2K2 whole entry): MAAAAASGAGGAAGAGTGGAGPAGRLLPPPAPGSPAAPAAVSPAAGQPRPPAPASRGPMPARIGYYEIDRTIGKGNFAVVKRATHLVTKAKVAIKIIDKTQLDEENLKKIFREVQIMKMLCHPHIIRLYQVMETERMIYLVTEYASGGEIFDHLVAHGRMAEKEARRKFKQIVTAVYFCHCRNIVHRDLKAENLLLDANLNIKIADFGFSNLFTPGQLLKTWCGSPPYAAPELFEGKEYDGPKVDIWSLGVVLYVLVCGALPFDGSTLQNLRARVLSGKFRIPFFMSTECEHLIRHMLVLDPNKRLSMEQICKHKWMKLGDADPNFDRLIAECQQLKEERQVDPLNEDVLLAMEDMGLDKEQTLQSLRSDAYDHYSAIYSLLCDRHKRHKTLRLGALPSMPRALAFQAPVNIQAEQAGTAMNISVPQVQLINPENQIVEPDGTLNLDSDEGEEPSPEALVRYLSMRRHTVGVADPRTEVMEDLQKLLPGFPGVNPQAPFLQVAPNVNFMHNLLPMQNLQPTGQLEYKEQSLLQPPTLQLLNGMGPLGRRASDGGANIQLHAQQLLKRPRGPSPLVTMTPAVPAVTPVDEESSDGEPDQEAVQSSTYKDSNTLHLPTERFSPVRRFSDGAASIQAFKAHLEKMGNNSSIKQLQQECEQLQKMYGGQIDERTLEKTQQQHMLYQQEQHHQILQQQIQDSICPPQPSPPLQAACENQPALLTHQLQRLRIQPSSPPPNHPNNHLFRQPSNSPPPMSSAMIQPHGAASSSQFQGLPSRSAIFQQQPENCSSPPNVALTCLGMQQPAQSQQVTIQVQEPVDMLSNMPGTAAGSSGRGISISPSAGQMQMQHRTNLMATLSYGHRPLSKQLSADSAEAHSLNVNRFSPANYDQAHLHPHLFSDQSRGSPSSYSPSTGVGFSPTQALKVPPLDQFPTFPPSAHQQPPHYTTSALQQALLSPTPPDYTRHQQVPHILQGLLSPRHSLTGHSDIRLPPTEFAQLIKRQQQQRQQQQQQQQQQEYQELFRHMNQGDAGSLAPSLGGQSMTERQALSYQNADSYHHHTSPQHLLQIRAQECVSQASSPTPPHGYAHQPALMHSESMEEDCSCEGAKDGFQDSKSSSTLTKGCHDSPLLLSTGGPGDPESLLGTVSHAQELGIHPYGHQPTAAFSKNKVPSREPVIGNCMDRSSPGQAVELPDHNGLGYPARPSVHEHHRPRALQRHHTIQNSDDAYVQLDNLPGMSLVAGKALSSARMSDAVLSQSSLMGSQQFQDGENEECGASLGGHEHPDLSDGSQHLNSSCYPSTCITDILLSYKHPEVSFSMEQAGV

[4] = biological target: MAP3K4 (Homo sapiens, UniProt Q9Y6R4)
Chain of MAP3K4 (Q9Y6R4 whole entry): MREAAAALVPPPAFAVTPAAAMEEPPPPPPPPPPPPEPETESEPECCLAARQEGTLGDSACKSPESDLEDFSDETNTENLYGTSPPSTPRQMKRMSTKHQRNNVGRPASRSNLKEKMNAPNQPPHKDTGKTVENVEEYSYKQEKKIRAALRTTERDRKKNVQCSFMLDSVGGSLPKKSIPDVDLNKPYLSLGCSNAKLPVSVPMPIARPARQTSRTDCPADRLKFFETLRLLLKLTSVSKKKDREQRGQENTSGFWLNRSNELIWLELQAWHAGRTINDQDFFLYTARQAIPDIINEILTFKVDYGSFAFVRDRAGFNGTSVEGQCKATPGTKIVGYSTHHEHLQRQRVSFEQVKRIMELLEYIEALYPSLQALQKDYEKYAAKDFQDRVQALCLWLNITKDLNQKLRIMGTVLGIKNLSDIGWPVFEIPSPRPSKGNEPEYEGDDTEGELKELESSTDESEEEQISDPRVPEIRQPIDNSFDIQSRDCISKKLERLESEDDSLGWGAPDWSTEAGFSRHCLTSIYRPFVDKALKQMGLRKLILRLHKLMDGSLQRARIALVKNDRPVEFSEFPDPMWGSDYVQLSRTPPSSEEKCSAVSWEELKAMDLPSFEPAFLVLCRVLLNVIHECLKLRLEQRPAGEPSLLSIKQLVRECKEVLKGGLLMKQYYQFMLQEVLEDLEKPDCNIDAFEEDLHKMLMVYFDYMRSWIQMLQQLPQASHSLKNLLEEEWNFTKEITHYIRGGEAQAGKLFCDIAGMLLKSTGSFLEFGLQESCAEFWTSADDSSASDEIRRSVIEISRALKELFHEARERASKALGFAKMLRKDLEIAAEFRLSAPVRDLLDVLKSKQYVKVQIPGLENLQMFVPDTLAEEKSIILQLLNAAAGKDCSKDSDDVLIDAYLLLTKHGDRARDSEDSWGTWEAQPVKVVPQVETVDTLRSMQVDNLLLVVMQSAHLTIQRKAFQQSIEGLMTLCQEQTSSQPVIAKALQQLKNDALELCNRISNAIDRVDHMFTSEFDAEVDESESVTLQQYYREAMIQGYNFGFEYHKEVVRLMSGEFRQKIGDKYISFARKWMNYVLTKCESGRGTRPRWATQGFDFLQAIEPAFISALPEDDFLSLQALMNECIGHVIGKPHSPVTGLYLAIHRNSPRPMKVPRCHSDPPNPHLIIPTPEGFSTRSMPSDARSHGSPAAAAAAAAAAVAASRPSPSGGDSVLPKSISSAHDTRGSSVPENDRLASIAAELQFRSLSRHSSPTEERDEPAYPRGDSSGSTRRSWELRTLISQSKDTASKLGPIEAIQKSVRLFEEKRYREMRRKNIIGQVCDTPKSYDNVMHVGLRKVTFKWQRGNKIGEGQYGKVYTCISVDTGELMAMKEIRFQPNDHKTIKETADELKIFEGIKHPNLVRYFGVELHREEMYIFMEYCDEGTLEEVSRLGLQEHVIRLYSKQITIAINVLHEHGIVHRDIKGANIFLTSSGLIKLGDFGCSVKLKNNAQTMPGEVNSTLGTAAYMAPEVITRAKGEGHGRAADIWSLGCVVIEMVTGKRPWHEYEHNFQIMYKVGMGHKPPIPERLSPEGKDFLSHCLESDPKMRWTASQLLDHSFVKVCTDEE

[5] = biological target: PTK2 (Homo sapiens, UniProt Q05397)
Chain of PTK2 (Q05397 whole entry): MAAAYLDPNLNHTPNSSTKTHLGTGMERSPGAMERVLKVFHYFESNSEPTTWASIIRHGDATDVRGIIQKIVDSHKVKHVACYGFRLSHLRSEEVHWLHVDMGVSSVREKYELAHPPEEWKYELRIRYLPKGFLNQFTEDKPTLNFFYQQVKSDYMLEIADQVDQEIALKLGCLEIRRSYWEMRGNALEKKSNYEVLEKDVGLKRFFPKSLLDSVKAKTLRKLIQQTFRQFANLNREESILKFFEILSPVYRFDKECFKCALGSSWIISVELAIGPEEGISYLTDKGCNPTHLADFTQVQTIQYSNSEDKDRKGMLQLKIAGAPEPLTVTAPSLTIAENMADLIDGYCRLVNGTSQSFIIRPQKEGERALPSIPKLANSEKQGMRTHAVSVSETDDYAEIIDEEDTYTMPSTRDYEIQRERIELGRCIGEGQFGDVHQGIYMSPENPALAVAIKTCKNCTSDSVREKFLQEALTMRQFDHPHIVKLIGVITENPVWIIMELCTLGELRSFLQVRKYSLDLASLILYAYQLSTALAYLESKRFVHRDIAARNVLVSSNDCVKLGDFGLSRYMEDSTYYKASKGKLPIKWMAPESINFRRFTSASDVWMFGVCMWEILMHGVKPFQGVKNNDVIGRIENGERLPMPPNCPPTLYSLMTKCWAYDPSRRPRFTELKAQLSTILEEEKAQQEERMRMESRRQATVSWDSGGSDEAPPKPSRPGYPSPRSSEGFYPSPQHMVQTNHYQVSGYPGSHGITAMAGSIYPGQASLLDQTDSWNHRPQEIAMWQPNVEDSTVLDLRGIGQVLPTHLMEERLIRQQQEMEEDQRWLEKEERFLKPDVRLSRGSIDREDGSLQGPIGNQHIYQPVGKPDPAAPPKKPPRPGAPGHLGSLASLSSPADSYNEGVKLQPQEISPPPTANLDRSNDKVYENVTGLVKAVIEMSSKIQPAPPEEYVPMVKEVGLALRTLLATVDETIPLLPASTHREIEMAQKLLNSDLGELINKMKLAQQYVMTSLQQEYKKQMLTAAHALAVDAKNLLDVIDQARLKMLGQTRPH

[6] = biological target: YES1 (Homo sapiens, UniProt P07947)

Row | SMILES | Kd [1] | Kd [2] | Kd [3] | Kd [4] | Kd [5] | Kd [6]
1 | CN1CCN(c2ccc(Nc3ncc(C#N)c(Nc4ccccc4C(N)=O)n3)cc2)CC1.Cl [TCMDC-134116] | 79.3 nM and 75.7 nM | 32.3 nM and 39.4 nM | 214 nM and 153 nM | 19.8 nM and 25.8 nM | 13.2 nM and 17.4 nM | 40.6 nM and 50.7 nM
2 | Cl.NCC1(c2nc(-c3ccc(Cl)c(O)c3)c(-c3ccncc3)[nH]2)CCCCC1 [TCMDC-141154] | – | – | 40.3 nM and 31.2 nM | – | – | 1490 nM and 2600 nM
3 | CN(C)CC(O)COc1ccc(Nc2ncc([N+](=O)[O-])c(Nc3ccccc3O)n2)cc1.O=C(O)C(F)(F)F (stereo not drawn) [TCMDC-141399] | 335 nM and 292 nM | 591 nM and 907 nM | – | 426 nM | 26.9 nM and 29 nM | –
